Measurements published in the NIST ThermoML archive (doi:10.1021/je060269j).
“And” between values parts separate entries of the source, which are not always exact repeats. Identical values can stand only once.

Conditions: Liquid, Flow apparatus with low residence time

CC(=O)OC(C)(C)C [1,1-dimethylethyl ethanoate]
Conditions | Critical pressure [kPa] | Critical temperature [K] | vapor or sublimation pressure [kPa]
– | 3040 | 541.2 | –
472.7 K | – | – | 1053
495 K | – | – | 1527
514.5 K | – | – | 2074
533.7 K | – | – | 2722
535.7 K | – | – | 2802
535.9 K | – | – | 2801
536.4 K | – | – | 2835
537.3 K | – | – | 2868
537.7 K | – | – | 2903
538.6 K | – | – | 2949

CC(O)CCO (stereo not given) [1,3-butanediol]
Conditions | Critical pressure [kPa] | Critical temperature [K] | vapor or sublimation pressure [kPa]
– | 5180 | 692.4 | –
481.4 K | – | – | 100.2
508.1 K | – | – | 209.6
537.8 K | – | – | 418.5
576 K | – | – | 898.4
614.7 K | – | – | 1719
646.7 K | – | – | 2774
662.5 K | – | – | 3462
676.7 K | – | – | 4158
688.2 K | – | – | 4840

c1cocn1 [1,3-oxazole]
Conditions | Critical pressure [kPa] | Critical temperature [K] | vapor or sublimation pressure [kPa]
– | 6770 | 550.8 | –
479 K | – | – | 2424
494.6 K | – | – | 3116
514.9 K | – | – | 4146
535.5 K | – | – | 5523
547.4 K | – | – | 6492

CC(C)c1ccc(C(C)C)cc1 [1,4-diisopropylbenzene]
Conditions | Critical pressure [kPa] | Critical temperature [K] | vapor or sublimation pressure
– | 2360 | 676.2 | –
518 K | – | – | 217.1 kPa
552.6 K | – | – | 416.3 kPa
596.8 K | – | – | 837.8 kPa
648.1 K | – | – | 1669 kPa and 1667 kPa
666.2 K | – | – | 2078 kPa
672.3 K | – | – | 2258 kPa
675.9 K | – | – | 2325 kPa

CC1(C)CO1 [2,2-dimethyloxirane]
Conditions | Critical pressure [kPa] | Critical temperature [K] | vapor or sublimation pressure [kPa]
– | 4350 | 499.9 | –
320.1 K | – | – | 87.08
339.1 K | – | – | 165.1
365.6 K | – | – | 348.9
393.2 K | – | – | 678.4
428.2 K | – | – | 1381
469.4 K | – | – | 2760
496.4 K | – | – | 4141
499.2 K | – | – | 4306

CSSC [2,3-dithiabutane]
Conditions | Critical pressure [kPa] | Critical temperature [K] | vapor or sublimation pressure [kPa]
– | 5070 | 607.8 | –
466.3 K | – | – | 690
500.8 K | – | – | 1244
533.1 K | – | – | 2002
561 K | – | – | 2897
591.4 K | – | – | 4205
604.8 K | – | – | 4902
607.2 K | – | – | 5037

NCCOCCO [2-(2-aminoethoxy)ethanol]
Conditions | Critical pressure [kPa] | Critical temperature [K] | vapor or sublimation pressure [kPa]
– | 4800 | 721.2 | –
500.9 K | – | – | 117.3
526.9 K | – | – | 225.2
564.9 K | – | – | 496.6
594.2 K | – | – | 842.6
625.9 K | – | – | 1395
653.9 K | – | – | 2085
685 K | – | – | 3130
716.5 K | – | – | 4521
719.4 K | – | – | 4729

OCCCOCCCO [4-oxa-1,7-heptanediol]
Conditions | Critical pressure [kPa] | Critical temperature [K] | vapor or sublimation pressure [kPa]
– | 3380 | 705.2 | –
505 K | – | – | 100.7
534.3 K | – | – | 208.2
564.2 K | – | – | 395.8
607.2 K | – | – | 854.3
649.8 K | – | – | 1631
689.9 K | – | – | 2779
699.1 K | – | – | 3123
703.4 K | – | – | 3296

CCCCSSCCCC [5,6-dithiadecane]
Conditions | vapor or sublimation pressure [kPa]
504.2 K | 90.32
535.7 K | 180.3
571.7 K | 349.6
614.9 K | 695.7

O=CN1CCOCC1 [N-formylmorpholine]
Conditions | Critical pressure [kPa] | Critical temperature [K] | vapor or sublimation pressure [kPa]
– | 5080 | 779.3 | –
507.5 K | – | – | 91.7
538 K | – | – | 174.8
573.2 K | – | – | 343.4
614.6 K | – | – | 688.1
663.6 K | – | – | 1379
664.7 K | – | – | 1382
723.7 K | – | – | 2761
745.2 K | – | – | 3447
762.7 K | – | – | 4137
775.2 K | – | – | 4826
777.7 K | – | – | 4999

CN(CCO)CCO [N-methyldiethanolamine]
Conditions | Critical pressure [kPa] | Critical temperature [K] | vapor or sublimation pressure [kPa]
– | 4160 | 741.9 | –
519.7 K | – | – | 98.59
543.3 K | – | – | 175.1
574.8 K | – | – | 346.1
617.1 K | – | – | 743.9
657.1 K | – | – | 1389
707.5 K | – | – | 2785
728.1 K | – | – | 3475
735.4 K | – | – | 3799
738.4 K | – | – | 3985

C=CC(=O)OCCCC [butyl 2-propenoate]
Conditions | Critical pressure [kPa] | Critical temperature [K] | vapor or sublimation pressure [kPa]
– | 2840 | 601.2 | –
441.9 K | – | – | 178.6
471.9 K | – | – | 351.6
506.5 K | – | – | 689.5
549.3 K | – | – | 1380
599.1 K | – | – | 2761

CCOC(=O)C(=O)OCC [diethyl ethanedioate]
Conditions | Critical pressure [kPa] | Critical temperature [K] | vapor or sublimation pressure [kPa]
– | 3060 | 645.8 | –
454.6 K | – | – | 90.67
481.8 K | – | – | 182.4
512.9 K | – | – | 359.9
547.3 K | – | – | 690.9
590.1 K | – | – | 1381
638.8 K | – | – | 2761
642.5 K | – | – | 2934
644.4 K | – | – | 3013

CC(=O)OC(C)OC(C)=O [ethylidene diethanoate]
Conditions | Critical pressure [kPa] | Critical temperature [K] | vapor or sublimation pressure [kPa]
– | 2970 | 618.2 | –
461.6 K | – | – | 177.6
486.4 K | – | – | 314.3
514.2 K | – | – | 555.5
541.2 K | – | – | 902.2
571.5 K | – | – | 1457
601.1 K | – | – | 2286
608.2 K | – | – | 2561
612 K | – | – | 2697

O=C=Nc1ccccc1 [phenyl isocyanate]
Conditions | Critical pressure [kPa] | Critical temperature [K] | vapor or sublimation pressure [kPa]
– | 4000 | 656.9 | –
479.7 K | – | – | 278.9
553.2 K | – | – | 1038
588.3 K | – | – | 1724
618.6 K | – | – | 2551
653 K | – | – | 3795
653.1 K | – | – | 3793

O=S1(=O)CCCC1 [sulfolane]
Conditions | vapor or sublimation pressure [kPa]
560.2 K | 103.6
594.4 K | 203.9
626.3 K | 350.2
656.3 K | 556.8
685.1 K | 829.2
713.2 K | 1181
742 K | 1665
773.4 K | 2363
802.7 K | 3185
829 K | 4144

O=C1CCCO1 [γ-butyrolactone]
Conditions | Critical pressure [kPa] | Critical temperature [K] | vapor or sublimation pressure [kPa]
– | 5100 | 732.5 | –
474.9 K | – | – | 93.29
501.8 K | – | – | 174.7
532.5 K | – | – | 325.8
562.6 K | – | – | 558.5
600 K | – | – | 1005
639 K | – | – | 1723
673.8 K | – | – | 2643
696.7 K | – | – | 3454
713.8 K | – | – | 4147
726.8 K | – | – | 4779
730.8 K | – | – | 5013
